Structures are written as SMILES. Residues, ends and D or L forms follow the SMILES beside them.

Compound `CC(C)c1nc(COC(N)=O)n(C)c1Sc1cc(Cl)cc(Cl)c1` came in with a melting point of 146 to 148 °C.
Compound `O=C1NC(N2CCN(c3cnc(Cl)cn3)CC2)c2ccccc21` (stereo unspecified) gave a melting point of 263 to 266 °C.
`CCCc1c(OCCOc2ccc3c(=O)cc(-c4ccc(C(=O)OCC)cc4)oc3c2CCC)ccc(C(C)=O)c1O`: the melting point is 167 to 168 °C.
Compound `CCNC1N=CN(c2ccccc2C)C(=O)N1` (stereo unspecified) showed a melting point of 208 to 210 °C.
As to `CNC(=O)C(=C/c1ccccc1)/C(=C\c1cc(OC)c(OC)c(OC)c1)C(=O)OC`, the melting point lay in the range of 155 to 157 °C.
As for `COc1cc(NC(=O)NC(=O)c2c(F)cccc2F)ccc1OC(F)(F)C(F)(F)c1ccc(Cl)cc1`, the figure is 133 to 134 °C.
As for `Cc1nc(N)c2nc(C)n(NC3CCOCC3)c2c1C`, the figure is 240 to 242 °C.
In turn, `CCOC(=O)C1=C(C)NC(CS(=O)c2ccccc2)=C(C(=O)OCC)C1c1cccc([N+](=O)[O-])c1` (stereo unspecified) had a melting point of 160 to 162 °C.
In the case of `CC1=C(C(=O)OC2CC(C)(C)N(C)C(C)(C)C2)CC(C(=O)OC2CC(C)(C)N(C)C(C)(C)C2)=C(C)N1`, the melting point amounted to 232 °C.
In the case of `CCOC(=O)N1CCC2(CC1)OC(c1ccccc1)c1ccccc12` (stereo unspecified), the melting point is 115 to 119 °C.
`O=C(c1ccc(-c2cc(-c3c[nH]nc3-c3ccccn3)ccn2)cc1)N1CCOCC1` registered a melting point of 155 °C.
Take `Cc1cc(I)ccc1N=C=S`: the melting point fell in the range of 51 to 53 °C.
Regarding `CCCCc1c(C(=O)N(C)Cc2ccc3c(Br)c(OCC(Cc4ccccc4)C(=O)O)ccc3c2)oc2ccccc12` (stereo unspecified), the melting point lay within 64 to 68 °C.
`CN1CCCC1COc1ccc(-c2cccc(N)n2)c2ccccc12` (stereo unspecified) showed a melting point of 80 to 95 °C.
As for `NCCN1CCC(NC(=O)c2cc(Cl)c(N)c3c2OCCC3)CC1`, the figure is 130 °C.
Compound `O=C(O)Cc1c(C(=O)O)c2cc(Oc3ccc(Cl)c(F)c3)ccc2n1-c1ccccc1` showed a melting point of 174 to 176 °C.
As for `O=c1ccc(-c2ccc(-n3cnc4c3CCCC4)cc2)n[nH]1`, the melting point was 266 to 267 °C.
`Cc1cccc(C)c1N(C(=O)CCl)C1=CCCCC1` returned a melting point of 78 °C.
For the compound `CCCCC(=NNC(=O)OCC)c1ccncc1`, the melting point turned out to be 102 °C.
Next, `CN(C(=O)CCCOc1ccc2nc3[nH]c(=O)n(C)c3cc2c1)C1CCCCCC1`: 234 to 236 °C.
`NS(=O)(=O)c1ccc(-n2nc(C(F)(F)F)cc2-c2ccc(-c3cnco3)cc2)cc1` gave a melting point of 128 to 130 °C.
For `Cc1ccc(CCC(=O)NCCCCN2CCN(C(c3ccccc3)c3ccccc3)CC2)cn1`, the melting point lay within 126 to 127 °C.
Next, `CC(C)C1(Cl)Cc2cc(OCC(=O)O)c(Cl)c(Cl)c2C1=O` (stereo unspecified): 158 to 159 °C.
Regarding `COc1ccc(-c2ccc(C=C3SC(=O)NC3=O)cc2)cc1C12CC3CC(CC(C3)C1)C2`, the melting point lay within 304 to 306 °C.
As for `CCCC1=C(C(=O)OCC)C(C)(c2ccccc2)c2c[nH]nc2N1` (stereo unspecified), the figure is 207 °C.
For the compound `Cn1cc(-c2ccc(F)cc2)nc1SCCSc1nc(-c2ccc(F)cc2)c(-c2ccc(F)cc2)[nH]1`, the melting point lay within 202 to 205 °C.
In turn, `COc1cccc(OC)c1C(=O)Nc1nnc(-c2ccc(Cl)cc2)s1` registered a melting point of 238 to 240 °C.
As for `CC(=O)NCCOC(=O)C1CCn2c1cc(C)c2C(=O)c1ccc(Cl)n1C` (stereo unspecified), the figure is 156 to 157 °C; as for `COC(=O)CSCNC(=O)c1ccccc1`, 65 to 68 °C; as for `OC1CSC(Oc2cccnc2-c2cncnc2)C(O)C1O` (stereo unspecified), 195 °C.
`CCCCc1ccc2nc(Cl)c(S(N)(=O)=O)n2n1` yielded a melting point of 166 °C.
In turn, `C1=C(c2c[nH]c3ccccc23)CCN(CC2CCc3ccccc32)C1` (stereo unspecified) yielded a melting point of 168 to 170 °C.
As for `COc1cc(C(=O)NC2CCN(CC(F)(F)F)CC2)ccc1Nc1ncc2c(n1)N(C1CCCCC1)CC(F)(F)C(=O)N2C`, the figure is 213 to 215 °C.
Regarding `FC(F)(F)c1cc(C(F)(F)F)n(-c2ccc(NCc3ccncc3)cc2)n1`, the melting point was in the range of 92 to 94 °C.
For the compound `Nc1cccc(NNC=O)c1`, the melting point fell in the range of 108 to 113 °C.
Compound `Oc1ccc(-c2ccc(O)c3cc(O)c(O)cc23)cc1O` had a melting point of 224 to 226 °C.
Turning to `O=c1c2ccccc2sn1CCN1CCN(c2ccccc2)CC1`, the melting point fell in the range of 115 to 117 °C.
As for `Cc1nc(N)c2nc(CCO)n(NC3CCOCC3)c2c1C`, the figure is 190 to 192 °C; as for `COc1ccc2c(c1)c(Cc1csc(-c3ccncc3)n1)c(C)n2C(=O)c1ccc(Cl)cc1`, 109 to 114 °C; as for `NC(=O)c1ccc(OCc2ccccc2)cc1CCN1CCNCC1`, 116 to 118 °C.
In turn, `COc1ccc(C(=O)Nc2ccc(COc3ccc4c(c3)CCC(CN(C)C)C4)cc2)cc1` (stereo unspecified) showed a melting point of 155 to 159 °C.
`CC(=O)c1ccc(S(=O)(=O)N2CCCC(CO)C2)cc1` (stereo unspecified): the melting point is 104 to 106 °C.
As for `COc1cc2c(cc1Nc1ncc(Cl)c(Nc3cc(C#N)ccc3OC)n1)CCN(CC(N)=O)CC2`, the figure is 100 to 125 °C; as for `Cc1nc(-c2ccc([N+](=O)[O-])cc2)sc1C(=O)O`, 252 to 253 °C.
As for `Cc1cccc(Cl)c1NC(=O)CN1CCN(CCCC(c2ccc(F)cc2)c2ccc(F)cc2)C(CO)C1` (stereo unspecified), the figure is 150 °C.
As for `CCOC1=C(C#N)C(c2ccccc2)=C2C(=O)N(CC)C(c3ccccc3)=C12`, the figure is 200 to 202 °C; as for `COc1cccc(Sc2cccc(N)c2C#N)c1`, 79 to 81 °C.
`Cc1cc(N)c([N+](=O)[O-])cc1NCC(O)CO` (stereo unspecified) displayed a melting point of 150 °C.
The compound `CN(C)CCNC(=O)c1ccc(S(N)(=O)=O)cc1` returned a melting point of 150 to 151 °C.
`CCOC(=O)C1=C(COCC(C)(O)c2ncc[nH]2)NC(C)=C(C(=O)OC)C1c1cccc(Cl)c1Cl` (stereo unspecified) returned a melting point of 183 °C.
With `CC(=O)ON=C(N)c1ccc(C(=O)N2CCN(C(=O)[C@@H]3CCCN3S(=O)(=O)c3ccc(Cl)c(COc4cccc5ncc(C)nc45)c3Cl)CC2)cc1`, the melting point lay within 161 to 165 °C.
Turning to `CCOCc1nc2c(N)nc3cc(-c4ccc(F)c(F)c4)cnc3c2n1CC(C)(C)O`, the melting point fell in the range of 193 to 195 °C.
Next, `CC(C=CCC(C)(O)CO)C1CCC2C(O)CCCC12C` (stereo unspecified): 87 to 88 °C; `Cc1ccc2nc(-c3ccc([N+](=O)[O-])cc3)cn2c1`: 237 to 239 °C; `CS(=O)(=O)c1ccc(-c2sc(COc3cccc(Cl)c3)nc2-c2ccc(F)cc2)cc1`: 128 to 131 °C.
Next, `O=C(CC1CCOCC1)Oc1cc(=O)n(-c2ccccc2)c2ncccc12`: 169 to 171 °C; `O=S(=O)(c1ccc(Br)cc1)N1CCCC1c1ccc(F)cc1` (racemic): 131 °C.
As to `CC(C)CCn1cc([N+](=O)[O-])cc1C(=O)O`, the melting point is 154 to 157 °C.
`N#CC(c1ccc(Cl)cc1)c1ccc(-n2ncc(=O)[nH]c2=O)cc1` (stereo unspecified) yielded a melting point of 206 °C.
Regarding `CCCCc1oc2ccccc2c1C(=O)NCc1ccc2c(-c3ccc(Cl)cc3)c(OCC#N)ccc2c1`, the melting point was in the range of 154 to 158 °C.
With `COc1ccc2c(c1O)CN(C)C(=O)C2c1cc(OC)c(OC)c(OC)c1` (single isomer, unassigned; (+)), the melting point was in the range of 193 to 196 °C.
Consider `COC(=O)CC(=O)c1cc(CN2CCOCC2)sc1Cl`, for which the melting point is 67 to 68 °C.
Next, `COc1cc(Nc2nccc(Nc3cccc(CCO)c3)n2)cc(OC)c1OC`: 72 °C; `C[C@H](N)C(=O)N1CCC[C@H]1C(=O)O` (H-Ala-Pro-OH): 106 to 132 °C; `CCNC(=O)c1sc(C=O)cc1[Si](C)(C)C`: 62 to 65 °C.
Take `COc1cc(C(=O)Oc2cc(Cl)c(Cl)cc2Cl)ccc1Cc1cn(C)c2ccc([N+](=O)[O-])cc12`: the melting point lay within 134 to 136 °C.
Regarding `CCC(O)(CC)CC1NC(=O)c2ccccc21` (stereo unspecified), the melting point lay within 130 to 132 °C.
`Cc1nc(C)c(-c2ccnc(Nc3ccc(N4CCOCC4)c(C)c3)n2)s1` returned a melting point of 164 to 166 °C.
`CC(=O)Oc1ccc(Cl)nc1` gave a melting point of 45 to 47 °C.
In the case of `Cc1cc2cc(CN(C)C)cnc2cc1NC(=O)c1ccc(-c2ccc(F)cc2)cc1`, the melting point fell in the range of 183 to 186 °C.
The compound `COc1ccc(CCNC[C@H](O)COc2ccc(-c3nc(C(C)=O)c[nH]3)cc2)cc1OC` showed a melting point of 138 to 142 °C.
Turning to `CC(C)Oc1ccc(-c2nn(C(C)c3oc4cccc(F)c4c(=O)c3-c3cccc(F)c3)c3ncnc(N)c23)cc1F` (stereo unspecified), the melting point lay in the range of 228 to 230 °C.
For `CON(C)C(=O)C1(C)CCc2c(C)c(O)c(C)c(C)c2O1` (stereo unspecified), the melting point fell in the range of 139 to 140 °C.
In the case of `NCCCCCCOc1ccccc1C(=O)Nc1ccc(C(=O)N2CCCCc3ccccc32)cc1`, the melting point is 136 to 138 °C.
With `Cc1nc2c(N)nc3ccccc3c2n1CC(C)(C)CC1(C)OCCO1`, the melting point fell in the range of 209 to 211 °C.
In turn, `O=C(Nc1cccnc1NCc1ccc(Cl)cc1)c1ccccc1Cl` gave a melting point of 117 to 119 °C.
As for `O=c1c(Br)cc2cnc(Nc3ccccn3)nc2n1C1CCCC1`, the melting point is 273 to 275 °C.
For the compound `Nc1cccc(/C=C/c2nc(C3CCCC3)cs2)c1`, the melting point lay within 59 to 61 °C.
As for `COC(OC)C(=O)C=Cc1ccc(-c2cccs2)s1`, the figure is 74 °C.
The compound `Cc1cc(SC(=O)N(C)C)c(C(C)(C)C)cc1CO` showed a melting point of 136 °C.
`CSc1nccc(C(=NO)C(=O)c2cccc(Br)c2)n1` yielded a melting point of 156 to 158 °C.
As for `CON(C)C(=O)Nc1ccc(CN2OCCC(C)(SC)C2=O)c(Cl)c1` (stereo unspecified), the figure is 88 to 91 °C; as for `Cc1cc2c(F)cc(F)c(-n3c(=O)cc(C(F)(F)F)n(C)c3=O)c2o1`, 176 to 178 °C; as for `CCOC(=O)Cn1nc(-c2ccc(C)cc2)c(C(N)=O)c1N`, 179 °C.
For `CN(C)c1cc(-n2nc(N(C)C)n(C)c2=O)c(F)cc1C#N`, the melting point lay in the range of 109 to 110 °C.
`CCOC(=O)c1cn2c3c(cccc3c1=O)C1CCCCC12` (stereo unspecified) came in with a melting point of 71 to 73 °C.

Values taken from a melting point compilation (Tetko et al.; mined from patent text by program, amines drawn as free bases though some values may be those of a salt).
